Here are results for 15 molecules from patent US11998610B2, “Conjugates and methods of using the same” (Flagship Pioneering Innovations V, Inc., priority 2018, dated 2024).

Non-standard residues stand in square brackets, D forms with d. Residues, ends and D or L forms follow the SMILES beside them. *: point of attachment. Myristoyl = CCCCCCCCCCCCCC(=O)*; Octanoyl = CCCCCCCC(=O)*

Data set [1] in a line: Stability of conjugates in Simulated Gastric Fluid (SGF). The class given is in vitro ADME. The conditions noted are these: simulated gastric fluid pH 1.6 with pepsin, 1 μM, 37° C. An outline of the steps: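 Compounds at 1 μM (from 1 mM DMSO stock) were incubated at 37°C in simulated gastric fluid, NaCl pH 1.6 with FaSSIF powder and 0.1 mg/mL pepsin. Aliquots taken at T0 and regular intervals were quenched with an equal volume of acetonitrile and analysed by LC/MS for degradation rate.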

The test system of a further data set is E. coli BL21(DE3). Put plainly: Cell-based assay with ClbP with LCMS, ClbP negative strain. Conditions: 10 μM compound, 37° C., 20 h. The method, boiled down:
(§1)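 Compound (10 μM final) incubated 20 h at 37° C, aerobically, with 1:40-diluted overnight cultures of ClbP-positive E. coli or negative BL21(DE3), in duplicate, alongside uninoculated LB. Remaining parent quantified by LC-MS/MS (MRM) after acetonitrile quench, expressed as percent of media-alone.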

Data set [2] relates to E. coli CFT073 ATCC 700928 and/or E. coli Nissle 1917. Briefly: Cell-based assay with ClbP with LCMS, ClbP positive strain. The conditions noted are these: for % Remaining in ClbP Positve Relative to Media-Only: ClbP-encoding E. coli, 10 μM compound, 37° C., 20 h; for Difference between the ClbP Positive and ClbP Negative release profiles: conclusion from Table 4. The method, boiled down: as §1

For `CCCCCCCCCCCCCC(=O)N[C@H](CC(N)=O)C(=O)N[C@@H](C)CCC(=O)O[C@]1(CC)C(=O)OCc2c1cc1n(c2=O)Cc2c-1nc1ccc(O)cc1c2CC` [Example 35, (S)-4,11-diethyl-9-hydroxy-3,14-dioxo-3,4,12,14-tetrahydro-1H-pyrano[3′,4′:6,7]indolizino[1,2-b]quinolin-4-yl (S)-4-((R)-4-amino-4-oxo-2-tetradecanamidobutanamido)pentanoate], the “Assay 1 (SGF) (% Remaining @ 1 hours)” value in data set [1] was “C (>75% of the tested compound remaining)”. In addition, the “% Remaining in ClbP Negative Relative to Media-Only” value in the data set with E. coli BL21(DE3) is “− (>75% compound remaining in the 20 μM WT ClbP reaction relative to the no-enzyme control)”. In data set [2], the “% Remaining in ClbP Positve Relative to Media-Only” value is reported as “+ (between 25-75% compound remaining in the 20 μM WT ClbP reaction relative to the no-enzyme control)”; the “Difference between the ClbP Positive and ClbP Negative release profiles” value is reported as “particularly favorable difference”.

In the case of `CCCCCCCC(=O)N[C@H](CC(N)=O)C(=O)N[C@@H](CC(C)C)C(=O)OC` [Example 7, Methyl octanoyl-D-asparaginyl-L-leucinate] (Octanoyl-[dN]-Leu-OMe), the “Assay 1 (SGF) (% Remaining @ 1 hours)” value in data set [1] is on record as “C (>75% of the tested compound remaining)”. In addition, the “% Remaining in ClbP Negative Relative to Media-Only” value in the data set with E. coli BL21(DE3) is listed as “+ (between 25-75% compound remaining in the 20 μM WT ClbP reaction relative to the no-enzyme control)”. The “% Remaining in ClbP Positve Relative to Media-Only” value in data set [2] is “+ (between 25-75% compound remaining in the 20 μM WT ClbP reaction relative to the no-enzyme control)”.

In the case of `CCCCCCCC(=O)N[C@H](CC(N)=O)C(=O)NCCN(C)C(=O)Oc1ccc2c(C)cc(=O)oc2c1` [Example 70, 4-methyl-2-oxo-2H-chromen-7-yl (R)-(2-(4-amino-2-octanamido-4-oxobutanamido)ethyl)(methyl)carbamate], in data set [1], the “Assay 1 (SGF) (% Remaining @ 1 hours)” value is given as “C (>75% of the tested compound remaining)”. In the data set with E. coli BL21(DE3), the “% Remaining in ClbP Negative Relative to Media-Only” value is listed as “− (>75% compound remaining in the 20 μM WT ClbP reaction relative to the no-enzyme control)”. Also, in data set [2], the “% Remaining in ClbP Positve Relative to Media-Only” value is “+ (between 25-75% compound remaining in the 20 μM WT ClbP reaction relative to the no-enzyme control)”; the “Difference between the ClbP Positive and ClbP Negative release profiles” value is “particularly favorable difference”.

Regarding `CCCCCCCC(=O)N[C@H](CCC(=O)O)C(=O)N[C@@H](C)C(=O)OC` [Example 9, (R)-5-(((S)-1-methoxy-1-oxopropan-2-yl)amino)-4-octanamido-5-oxopentanoic acid] (Octanoyl-[dE]-Ala-OMe), the “Assay 1 (SGF) (% Remaining @ 1 hours)” value in data set [1] is reported as “C (>75% of the tested compound remaining)”. Moreover, the “% Remaining in ClbP Negative Relative to Media-Only” value in the data set on E. coli BL21(DE3) is listed as “− (>75% compound remaining in the 20 μM WT ClbP reaction relative to the no-enzyme control)”. Also, the “% Remaining in ClbP Positve Relative to Media-Only” value in data set [2] is reported as “+ (between 25-75% compound remaining in the 20 μM WT ClbP reaction relative to the no-enzyme control)”.

On to `CCCCCCCC(=O)N[C@H](CC(N)=O)C(=O)N[C@H](C(=O)OC)C(C)C` [Example 6, Methyl octanoyl-D-asparaginyl-L-valinate] (Octanoyl-[dN]-Val-OMe), for which, in data set [1], the “Assay 1 (SGF) (% Remaining @ 1 hours)” value is recorded as “C (>75% of the tested compound remaining)”. Besides, the “% Remaining in ClbP Negative Relative to Media-Only” value in the data set with E. coli BL21(DE3) is “+ (between 25-75% compound remaining in the 20 μM WT ClbP reaction relative to the no-enzyme control)”. For the same molecule, the “% Remaining in ClbP Positve Relative to Media-Only” value in data set [2] is “++ (<25% compound remaining in the 20 μM WT ClbP reaction relative to the control)”.

Turning to `COC(=O)[C@H](C)NC(=O)[C@@H](CC(N)=O)NC(=O)[C@@H](C)c1ccc2cc(OC)ccc2c1` [Example 18, Methyl ((S)-2-(6-methoxynaphthalen-2-yl)propanoyl)-D-asparaginyl-L-alaninate], in data set [1], the “Assay 1 (SGF) (% Remaining @ 1 hours)” value is reported as “C (>75% of the tested compound remaining)”. For the same molecule, the “% Remaining in ClbP Negative Relative to Media-Only” value in the data set on E. coli BL21(DE3) is “+ (between 25-75% compound remaining in the 20 μM WT ClbP reaction relative to the no-enzyme control)”. The “% Remaining in ClbP Positve Relative to Media-Only” value in data set [2] was “+ (between 25-75% compound remaining in the 20 μM WT ClbP reaction relative to the no-enzyme control)”.

In the case of `CCCCCCCCCCCCCC(=O)N[C@H](CC(N)=O)C(=O)Nc1ccc(COC)cc1` [Example 22, (R)—N1-(4-(methoxymethyl)phenyl)-2-tetradecanamidosuccinamide], the “Assay 1 (SGF) (% Remaining @ 1 hours)” value in data set [1] was “C (>75% of the tested compound remaining)”. In addition, in the data set with E. coli BL21(DE3), the “% Remaining in ClbP Negative Relative to Media-Only” value is reported as “− (>75% compound remaining in the 20 μM WT ClbP reaction relative to the no-enzyme control)”. Further, the “% Remaining in ClbP Positve Relative to Media-Only” value in data set [2] was “− (>75% compound remaining in the 20 μM WT ClbP reaction relative to the no-enzyme control)”.

As to `CCCCCCCC(=O)N[C@H](CC(N)=O)C(=O)N[C@H](C)C(=O)OC` [Example 5, Methyl octanoyl-D-asparaginyl-D-alaninate] (Octanoyl-[dN]-[dA]-OMe), in data set [1], the “Assay 1 (SGF) (% Remaining @ 1 hours)” value is recorded as “C (>75% of the tested compound remaining)”. Further, the “% Remaining in ClbP Negative Relative to Media-Only” value in the data set with E. coli BL21(DE3) was “− (>75% compound remaining in the 20 μM WT ClbP reaction relative to the no-enzyme control)”. For the same molecule, in data set [2], the “% Remaining in ClbP Positve Relative to Media-Only” value is on record as “++ (<25% compound remaining in the 20 μM WT ClbP reaction relative to the control)”; the “Difference between the ClbP Positive and ClbP Negative release profiles” value is “particularly favorable difference”.

On to `CCCCCCCCCCCCCC(=O)N[C@H](CC(N)=O)C(=O)NCCCC(=O)OC` [Example 20, Methyl (R)-4-(4-amino-4-oxo-2-tetradecanamidobutanamido)butanoate], for which the “Assay 1 (SGF) (% Remaining @ 1 hours)” value in data set [1] is recorded as “C (>75% of the tested compound remaining)”. The “% Remaining in ClbP Negative Relative to Media-Only” value with E. coli BL21(DE3) is recorded as “− (>75% compound remaining in the 20 μM WT ClbP reaction relative to the no-enzyme control)”. Moreover, the “% Remaining in ClbP Positve Relative to Media-Only” value in data set [2] is listed as “+ (between 25-75% compound remaining in the 20 μM WT ClbP reaction relative to the no-enzyme control)”.

Turning to `CCCCCCCC(=O)N[C@H](CCCNC(=N)N)C(=O)N[C@@H](C)C(=O)OC` [Example 11, Methyl octanoyl-D-arginyl-L-alaninate] (Octanoyl-[dR]-Ala-OMe), the “Assay 1 (SGF) (% Remaining @ 1 hours)” value in data set [1] is “C (>75% of the tested compound remaining)”. In addition, the “% Remaining in ClbP Negative Relative to Media-Only” value in the data set on E. coli BL21(DE3) is “− (>75% compound remaining in the 20 μM WT ClbP reaction relative to the no-enzyme control)”. For the same molecule, the “% Remaining in ClbP Positve Relative to Media-Only” value in data set [2] is recorded as “+ (between 25-75% compound remaining in the 20 μM WT ClbP reaction relative to the no-enzyme control)”.

As to `CCCCCCCC(=O)N[C@H](CC(N)=O)C(=O)N[C@@H](C)C(=O)OC` [Example 2, Methyl octanoyl-D-asparaginyl-L-alaninate] (Octanoyl-[dN]-Ala-OMe), the “Assay 1 (SGF) (% Remaining @ 1 hours)” value in data set [1] is recorded as “C (>75% of the tested compound remaining)”. Further, the “% Remaining in ClbP Negative Relative to Media-Only” value in the data set with E. coli BL21(DE3) is “+ (between 25-75% compound remaining in the 20 μM WT ClbP reaction relative to the no-enzyme control)”. For the same molecule, the “% Remaining in ClbP Positve Relative to Media-Only” value in data set [2] was “++ (<25% compound remaining in the 20 μM WT ClbP reaction relative to the control)”.

Take `CCCCCCCCCCCCCC(=O)N[C@H](CC(N)=O)C(=O)N[C@@H](C)C(=O)OC` [Example 1, Methyl tetradecanoyl-D-asparaginyl-L-alaninate] (Myristoyl-[dN]-Ala-OMe): the “Assay 1 (SGF) (% Remaining @ 1 hours)” value in data set [1] is given as “C (>75% of the tested compound remaining)”. The “% Remaining in ClbP Negative Relative to Media-Only” value with E. coli BL21(DE3) is given as “+ (between 25-75% compound remaining in the 20 μM WT ClbP reaction relative to the no-enzyme control)”. Besides, the “% Remaining in ClbP Positve Relative to Media-Only” value in data set [2] was “+ (between 25-75% compound remaining in the 20 μM WT ClbP reaction relative to the no-enzyme control)”.

For the molecule `CCCCCCCCCCCCCC(=O)N[C@H](CC(N)=O)C(=O)N[C@@H](C)CCC(=O)OC` [Example 21, Methyl (S)-4-((R)-4-amino-4-oxo-2-tetradecanamidobutanamido)pentanoate], the “Assay 1 (SGF) (% Remaining @ 1 hours)” value in data set [1] is reported as “C (>75% of the tested compound remaining)”. In the data set with E. coli BL21(DE3), the “% Remaining in ClbP Negative Relative to Media-Only” value was “− (>75% compound remaining in the 20 μM WT ClbP reaction relative to the no-enzyme control)”. In data set [2], the “% Remaining in ClbP Positve Relative to Media-Only” value is “+ (between 25-75% compound remaining in the 20 μM WT ClbP reaction relative to the no-enzyme control)”.

`CCCCCCCC(=O)N[C@@H](CC(N)=O)C(=O)N[C@@H](C)C(=O)OC` [Example 4, Methyl octanoyl-L-asparaginyl-L-alaninate] (Octanoyl-Asn-Ala-OMe): in data set [1], the “Assay 1 (SGF) (% Remaining @ 1 hours)” value is on record as “C (>75% of the tested compound remaining)”. Also, the “% Remaining in ClbP Negative Relative to Media-Only” value in the data set on E. coli BL21(DE3) is listed as “++ (<25% compound remaining in the 20 μM WT ClbP reaction relative to the control)”. In data set [2], the “% Remaining in ClbP Positve Relative to Media-Only” value is recorded as “++ (<25% compound remaining in the 20 μM WT ClbP reaction relative to the control)”.

For the molecule `CCCCCCCC(=O)N[C@H](CCC(N)=O)C(=O)N[C@@H](C)C(=O)OC` [Example 10, Methyl octanoyl-D-glutaminyl-L-alaninate] (Octanoyl-[dQ]-Ala-OMe), the “Assay 1 (SGF) (% Remaining @ 1 hours)” value in data set [1] is listed as “C (>75% of the tested compound remaining)”. In addition, in the data set on E. coli BL21(DE3), the “% Remaining in ClbP Negative Relative to Media-Only” value is recorded as “+ (between 25-75% compound remaining in the 20 μM WT ClbP reaction relative to the no-enzyme control)”. In data set [2], the “% Remaining in ClbP Positve Relative to Media-Only” value is listed as “+ (between 25-75% compound remaining in the 20 μM WT ClbP reaction relative to the no-enzyme control)”.
